Data as given in patent publication US11801242B2, “Compositions and methods for adjuvant cancer therapeutics” (DUKE UNIVERSITY, priority 2018, dated 2023).

Tests used:
Rev1^+/+ MEF cells = assay: HPRT mutagenesis assay; assay type: cell-based, mouse; conditions: RE01 1.5 μM, cisplatin 0.5 μM
Experimental: (§1) For the hypoxanthine-guanine phosphoribosyl transferase (HPRT) mutagenesis assay, cells were first grown in HAT (complete media with 100 μM Hypoxanthine, 0.4 μM Aminopterin and 16 μM Thymidine) media (ThermoFisher) for 14 days to weed out any spontaneous HPRT mutants. After HAT selection, cells were exposed to cisplatin at the 0.5 μM concentration for 24 hours. Then, in fresh media, RE01 at a concentration of 1.5 μM was added to cells. After 24 hours of drug treatment, cells were trypsinized and washed with PBS. While 200-600 cells were plated in complete media in triplicates in 6-well plates to determine clonal efficiency, the rest of the cells were plated in complete media to allow the expression of the phenotype for 8 days. Then, 500,000 cells per treatment were plated in sextuplicate in 10 cm dishes in 6-TG media to allow the proliferation of mutated HPRT^− cells. Colonies were fixed (50% methanol and 10% glacial acetic acid), stained (0.02% Coomassie brilliant blue R-250 stain in methanol: acetic acid: water in a ratio of 46.5:7:46.5 (v/v/v)), and counted after 14-20 days. The HPRT mutation frequency was calculated as the ratio of the number of HPRT^− colonies in 6-TG media to the number of surviving colonies plated in complete media to determine clonal efficiency.

HT1080 cells [1] = assay: Clonogenic survival after siRNA knock-down of REV1; assay type: cell-based, human; conditions: RE01 1.5 μM, cisplatin 1 μM
Experimental: (§2) 300 cells were plated in triplicate in 6-well plates for 24 hours. Cisplatin (cis-diammineplatinum(II) dichloride, Sigma-Aldrich) was added to relevant wells for 24 hours. All plates were incubated at 37° C. for 24 hours. Media were changed the next day and in fresh media RE01 (at 1.5 μM concentration) was added to untreated or cisplatin-treated cells for another 24 hours. Media were changed at the end of these combination treatments, and cells were allowed to recover for 7 days. To stain the resulting colonies, media were aspirated and the fixative (50% methanol and 10% glacial acetic acid) was added for 10 minutes, followed by the addition of 0.02% Coomassie brilliant blue R-250 stain (ThermoFisher) in methanol: acetic acid: water in a ratio of 46.5:7:46.5 (v/v/v). Colonies that stained blue and contained at least 40 cells were counted. Relative cell survival or colony formation was calculated by dividing colony counts from treated samples by the DMSO or untreated controls.
(§3) REV1 was knocked down by transiently transfecting SMARTpool: ON-TARGETplus REV1 siRNA by nucleofection. The siRNA was mixed with the nucleofection buffer Mouse/Rat Hepatocyte Nucleofector™ Kit (Lonza) and electroporated using the Nucleofector™ 2b device. Full-length mouse Rev1 on the pC3 plasmid (Clontech) was nucleofected using the same buffers and device into Rev1^−/− cells to complement the REV1 function.

A375 cells [2] = assay: Clonogenic survival after siRNA knock-down of REV1; assay type: cell-based, human; conditions: RE01 1.5 μM, cisplatin 1 μM
Experimental: as §2, §3

A375 cells [3] = assay: qRT-PCR of p21 mRNA; assay type: cell-based, human; conditions: combination RE01 1.5 μM and cisplatin 1 μM
Experimental: Total RNA was isolated by using the RNeasy Mini kit (Qiagen) from cells treated with RE01 (1.5 μM), cisplatin (1 μM) and a combination of both RE01 (1.5 μM) and cisplatin (1 μM). 5 ng of RNA from each sample was mixed with 10 μl of Applied Biosystems™ PowerUp™ SYBR™ Green Master Mix (ThermoFisher), 1 μl of MultiScribe™ Reverse Transcriptase (ThermoFisher), 0.1 μl of RNaseOUT™ Recombinant Ribonuclease Inhibitor and 5.9 μl of RNase-free water, and run in a one-step qRT-PCR reaction. Each reaction was run in triplicate. Primers used were: p21 F 5′-[…]-3′ (SEQ ID NO: 9), p21 R 5-CGGCGTTTGGAGTGG TAGAAA-3′ (SEQ ID NO: 10); GAPDH F 5′-[…]-3′ (SEQ ID NO: 11), GAPDH R 5′-[…]-3′ (SEQ ID NO: 12).

KP cells = assay: CellTiter-Glo Luminescence cell viability assay; assay type: cell-based, mouse
Experimental: Relative viability of cells in response to RE01 and DNA-damaging agents was assessed by the CellTiter-Glo Luminescence cell viability assay (Promega) that determines the number of viable cells based on the relative amount of ATP in the culture, which is directly proportional to the number of metabolically active cells. Briefly, 10,000 cells were plated in each well of a 96-well, white, clear flat bottom plate (Corning). Increasing doses of drugs in various combinations-RE01 alone or in combination with DNA-damaging agents-were added into the plates after 24 hours. The RE01 compound was dissolved in 0.1% DMSO and other drugs were dissolved in solvents ascribed by the manufacturer. In all cases, DMSO controls were run in parallel to the drug treatments. Cells were treated with DMSO or cisplatin (0.5 uM) for 24 hours, followed by RE01 (1.5 uM) treatment for additional 24 hours. Cells were washed and allowed to form colonies for 5-7 days and counted after staining with Coomassie brilliant blue R-250 stain. The relative viability of cells was monitored after 24 hours of drug treatment by adding CellTiter-Glo Luminescence stain to an equilibrated plate per the manufacturer's instructions. Luminescence was measured on the plate reader (Tecan Spark 10M). Relative luminescence, which is indicative of relative survival of metabolically active cells, was calculated by dividing the luminescence of treated samples with DMSO controls.
Viabilities of HT1080 (human fibrosarcoma), A375 (human melanoma), LNCap (human prostate adenocarcinoma), KP (mouse Kras^G12D;p53^−/− lung adenocarcinoma), and AG01522 (human primary fibroblasts) cells were assessed by the Promega CellTiter-Glo Luminescence cell viability assay. Relative luminescence intensities to samples treated with 0 μM RE01 (panel A) or with 0 μM DNA-damaging agents (panels B and C) are plotted. Blue lines represent single agent treatments, and orange lines represent RE01 combination treatments. […]

HT1080 cells [4] = assay: HPRT mutagenesis assay; assay type: cell-based, human; conditions: RE01 1.5 μM, cisplatin 0.5 μM
Experimental: as §1

CC(C)CC(=O)c1c(Nc2ccc(Cl)cc2Cl)[nH]c2c(Cl)ccc([N+](=O)[O-])c2c1=O [RE01, 8-chloro-2-((2,4-dichlorophenyl)amino)-3-(3-methylbutanoyl)-5-nitroquinolin-4(1H)-one]
spontaneous or cisplatin-induced HPRT mutation rates (Rev1^+/+ MEF cells): significantly reduced
RE01 mediated sensitization to cisplatin (HT1080 cells [1]): abolished
RE01 mediated sensitization to cisplatin (A375 cells [2]): abolished
levels of the p21 biomarker (A375 cells [3]): elevated levels
sensitization to DNA-damaging agent (KP cells; RE01 1.5 μM with 4-nitroquinolone 1-oxide (4-NQO)): sensitized
sensitization to DNA-damaging agent (KP cells; RE01 1.5 μM with benzo[a]pyrene diol epoxide (BPDE)): sensitized
sensitization to DNA-damaging agent (KP cells; RE01 1.5 μM with methyl methanesulfonate (MMS)): sensitized
frequency of spontaneous and cisplatin-induced HPRT mutations (HT1080 cells [4]): decreased
